Experimental findings from US10272126B2, “Nanoparticle-stabilized microcapsules, dispersions comprising nanoparticle-stabilized microcapsules, and method for the treatment of bacterial biofilms” (The University of Massachusetts, priority 2015, dated 2019) are described below.

The subject of this series is NIH 3T3 fibroblast cells. In words: Biofilm-3T3 fibroblast co-culture: mammalian cell viability (LDH cytotoxicity assay). The series is classed as cell-based. From the text: Scatters and lines represent 3T3 fibroblast cell viability. Bars represent log10 of colony forming units in biofilms. The data are average of triplicates and the error bars indicate the standard deviations.
Biofilm infections within wounds interfere with the ability of the host to regenerate damaged tissue. See, e.g., Roy, S.; Elgharably, H.; Sinha, M.; Ganesh, K.; Chaney, S.; Mann, E.; Miller, C.; Khanna, S.; Bergdall, V. K.; Powell, H. M.; et al. Mixed-Species Biofilm Compromises Wound Healing by Disrupting Epidermal Barrier Function. J. Pathol. 2014, 233, 331-343. […] The co-cultures were treated with capsules for 3 hours, washed, and the viabilities of both fibroblasts and bacteria were measured. […]
Testing solutions at different concentrations were made by diluting capsules into DMEM prior to use. […] Co-cultures were then analyzed using a LDH cytotoxicity assay to determine mammalian cell viability according the manufacturer's instructions. See, e.g., Decker, T.; Lohmann-Matthes, M. L. A Quick and Simple Method for the Quantitation of Lactate Dehydrogenase Release in Measurements of Cellular Cytotoxicity and Tumor Necrosis Factor (TNF) Activity. […] The solutions containing dispersed bacteria were then plated onto agar plates and colony forming units were counted after incubation at 37° C. overnight.

On to peppermint oil, for which the “3T3 fibroblast cell viability in co-culture” value is “toxic effects”.
